Consider 13 compounds from patent publication US10392391B2 (Vertex Pharmaceuticals Incorporated, priority 2012, dated 2019).

Structures are written as SMILES. Bounds are passed on as bounds.

This assay addresses ATR kinase (full-length ATR) (Homo sapiens (Human), UniProt Q13535). The assay is described as follows: ATR inhibition assay (radioactive-phosphate incorporation). The class given is biochemical. Conditions: Ki(app), 5 nM full-length ATR, 10 μM ATP, 25° C. In outline: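 Ki(app) was fitted by non-linear regression to background-corrected initial rates. Full-length ATR (5 nM) phosphorylated 800 μM peptide using 10 μM [γ-33P]ATP at 25° C in Tris/HCl pH 7.5 buffer with MgCl2, DTT and 7% DMSO. After 10-minute compound pre-incubation and 24-hour reaction, phosphocellulose filters were scintillation counted.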

Chain of ATR kinase (full-length ATR) (Q13535 whole entry): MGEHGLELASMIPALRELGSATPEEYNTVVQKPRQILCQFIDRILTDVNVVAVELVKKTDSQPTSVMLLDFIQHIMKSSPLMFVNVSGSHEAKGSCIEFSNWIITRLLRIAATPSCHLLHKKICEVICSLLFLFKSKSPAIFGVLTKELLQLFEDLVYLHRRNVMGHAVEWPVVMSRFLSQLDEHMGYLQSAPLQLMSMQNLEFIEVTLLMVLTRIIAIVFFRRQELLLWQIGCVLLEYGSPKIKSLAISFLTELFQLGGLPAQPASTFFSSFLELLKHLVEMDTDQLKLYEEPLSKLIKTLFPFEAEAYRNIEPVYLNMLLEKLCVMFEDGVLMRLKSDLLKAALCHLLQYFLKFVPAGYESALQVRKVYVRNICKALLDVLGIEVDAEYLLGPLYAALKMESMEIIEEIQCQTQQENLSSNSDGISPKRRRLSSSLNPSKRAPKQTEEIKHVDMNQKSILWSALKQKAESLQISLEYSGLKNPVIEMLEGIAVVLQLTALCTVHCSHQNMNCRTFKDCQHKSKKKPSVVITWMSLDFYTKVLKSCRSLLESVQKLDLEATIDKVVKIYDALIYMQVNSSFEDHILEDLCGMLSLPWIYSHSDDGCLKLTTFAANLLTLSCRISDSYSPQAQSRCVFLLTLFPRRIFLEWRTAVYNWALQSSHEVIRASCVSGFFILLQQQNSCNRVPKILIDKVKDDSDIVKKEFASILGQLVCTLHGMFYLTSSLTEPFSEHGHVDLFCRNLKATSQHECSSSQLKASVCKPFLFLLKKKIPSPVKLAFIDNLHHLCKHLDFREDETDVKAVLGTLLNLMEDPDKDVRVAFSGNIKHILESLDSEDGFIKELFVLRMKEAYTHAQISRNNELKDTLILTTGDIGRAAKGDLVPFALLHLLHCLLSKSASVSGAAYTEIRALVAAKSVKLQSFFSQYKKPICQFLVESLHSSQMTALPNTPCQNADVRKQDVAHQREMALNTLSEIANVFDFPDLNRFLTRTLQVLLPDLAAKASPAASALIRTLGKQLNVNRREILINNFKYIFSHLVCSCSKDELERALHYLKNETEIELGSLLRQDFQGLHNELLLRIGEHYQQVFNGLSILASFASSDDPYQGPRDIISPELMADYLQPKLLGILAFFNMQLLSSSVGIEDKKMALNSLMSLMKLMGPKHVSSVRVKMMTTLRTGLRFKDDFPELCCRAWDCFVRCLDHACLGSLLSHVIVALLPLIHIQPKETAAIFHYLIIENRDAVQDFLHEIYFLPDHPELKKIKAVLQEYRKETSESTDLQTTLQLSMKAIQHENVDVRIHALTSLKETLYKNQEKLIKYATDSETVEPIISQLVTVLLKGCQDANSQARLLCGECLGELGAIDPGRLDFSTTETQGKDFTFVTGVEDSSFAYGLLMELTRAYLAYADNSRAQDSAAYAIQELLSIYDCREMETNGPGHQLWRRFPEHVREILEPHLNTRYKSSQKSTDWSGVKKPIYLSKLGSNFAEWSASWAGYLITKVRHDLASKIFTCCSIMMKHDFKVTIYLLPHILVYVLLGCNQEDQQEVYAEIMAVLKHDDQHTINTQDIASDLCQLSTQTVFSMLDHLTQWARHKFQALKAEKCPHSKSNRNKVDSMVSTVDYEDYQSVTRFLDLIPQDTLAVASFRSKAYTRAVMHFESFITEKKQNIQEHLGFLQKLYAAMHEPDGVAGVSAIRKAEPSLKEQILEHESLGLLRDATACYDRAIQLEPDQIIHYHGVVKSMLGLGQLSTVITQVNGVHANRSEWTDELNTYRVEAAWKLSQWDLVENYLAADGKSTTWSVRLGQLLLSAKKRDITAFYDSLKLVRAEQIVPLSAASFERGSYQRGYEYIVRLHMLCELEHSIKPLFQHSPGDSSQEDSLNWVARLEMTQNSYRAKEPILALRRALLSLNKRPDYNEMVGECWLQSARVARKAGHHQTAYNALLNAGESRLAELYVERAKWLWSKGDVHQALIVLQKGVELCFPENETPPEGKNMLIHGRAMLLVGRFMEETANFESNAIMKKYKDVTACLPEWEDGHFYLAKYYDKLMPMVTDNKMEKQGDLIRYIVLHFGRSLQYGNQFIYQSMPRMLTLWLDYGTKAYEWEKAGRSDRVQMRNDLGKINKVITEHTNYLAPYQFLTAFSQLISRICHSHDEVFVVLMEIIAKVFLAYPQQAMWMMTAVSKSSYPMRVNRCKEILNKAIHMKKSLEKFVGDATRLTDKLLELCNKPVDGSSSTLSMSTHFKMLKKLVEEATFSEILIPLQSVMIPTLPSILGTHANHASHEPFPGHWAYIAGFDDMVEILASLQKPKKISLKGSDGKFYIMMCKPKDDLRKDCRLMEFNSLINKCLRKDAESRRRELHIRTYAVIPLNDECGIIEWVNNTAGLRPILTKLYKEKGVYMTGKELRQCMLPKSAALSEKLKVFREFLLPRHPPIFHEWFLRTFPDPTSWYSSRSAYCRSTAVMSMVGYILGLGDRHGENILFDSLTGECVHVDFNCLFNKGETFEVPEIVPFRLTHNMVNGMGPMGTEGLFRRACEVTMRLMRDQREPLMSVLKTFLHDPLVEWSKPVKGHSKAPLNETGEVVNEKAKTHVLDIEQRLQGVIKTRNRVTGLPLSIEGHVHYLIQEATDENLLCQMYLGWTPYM

`CC(C)Oc1ccncc1NC(=O)c1c(N)nn2cc(CC#N)cnc12` [I-O-35, 2-amino-6-(cyanomethyl)-N-(4-isopropoxypyridin-3-yl)pyrazolo[1,5-a]pyrimidine-3-carboxamide]: the Ki was less than 10 nM.

`Nc1nn2cc(F)cnc2c1C(=O)Nc1cncc(F)c1N1CCC(C(=O)N2CC3CNCC3C2)CC1` (stereo not shown) [I-G-51, 2-amino-6-fluoro-N-(5-fluoro-4-(4-(octahydropyrrolo[3,4-c]pyrrole-2-carbonyl)piperidin-1-yl)pyridin-3-yl)pyrazolo[1,5-a]pyrimidine-3-carboxamide]: the Ki is 10 to 1000 nM.

Regarding `Cc1nc(F)ccc1-c1ccncc1NC(=O)c1c(N)nn2cc(F)cnc12` [I-C-34, 2-amino-6-fluoro-N-(6-fluoro-2-methyl-[3,4′-bipyridin]-3′-yl)pyrazolo[1,5-a]pyrimidine-3-carboxamide], the Ki lay within 10 to 1000 nM.

`Nc1nn2cc(F)cnc2c1C(=O)Nc1cnccc1N1CCC(c2nnco2)CC1` [I-N-268, N-(4-(4-(1,3,4-oxadiazol-2-yl)piperidin-1-yl)pyridin-3-yl)-2-amino-6-fluoropyrazolo[1,5-a]pyrimidine-3-carboxamide]: the Ki was 10 to 1000 nM.

Consider `N#CCc1cnc2c(C(=O)Nc3cnccc3O[C@H]3CCOC3)c(N)nn2c1` [I-O-42, (S)-2-amino-6-(cyanomethyl)-N-(4-((tetrahydrofuran-3-yl)oxy)pyridin-3-yl)pyrazolo[1,5-a]pyrimidine-3-carboxamide], for which the Ki is less than 10 nM.

On to `Nc1nn2cc(F)cnc2c1C(=O)Nc1cnccc1N1CCC2(CCNC2)CC1` [I-N-255, N-(4-(2,8-diazaspiro[4.5]decan-8-yl)pyridin-3-yl)-2-amino-6-fluoropyrazolo[1,5-a]pyrimidine-3-carboxamide], for which the Ki lay within 10 to 1000 nM.

Consider `Nc1nn2cc(Cl)cnc2c1C(=O)Nc1cnccc1C1CCN(C2COC2)CC1` [I-C-11, 2-amino-6-chloro-N-(4-(1-(oxetan-3-yl)piperidin-4-yl)pyridin-3-yl)pyrazolo[1,5-a]pyrimidine-3-carboxamide], for which the Ki lay in the range of 10 to 1000 nM.

Take `Nc1nn2cc(F)cnc2c1C(=O)Nc1cnccc1N1CCC(N2CCCC2=O)CC1` [I-N-230, 2-amino-6-fluoro-N-(4-(4-(2-oxopyrrolidin-1-yl)piperidin-1-yl)pyridin-3-yl)pyrazolo[1,5-a]pyrimidine-3-carboxamide]: the Ki fell in the range of 10 to 1000 nM.

With `Nc1nn2cc(F)cnc2c1C(=O)Nc1cnccc1-n1cnc(C(F)(F)F)c1` [I-N-27, 2-amino-6-fluoro-N-(4-(4-(trifluoromethyl)-1H-imidazol-1-yl)pyridin-3-yl)pyrazolo[1,5-a]pyrimidine-3-carboxamide], the Ki fell in the range of 10 to 1000 nM.

Turning to `Nc1nn2cc(F)cnc2c1C(=O)Nc1cncc(Cl)c1N1CCN(C2CCOC2)CC1` (stereo not shown) [I-N-124, 2-amino-N-(5-chloro-4-(4-(tetrahydrofuran-3-yl)piperazin-1-yl)pyridin-3-yl)-6-fluoropyrazolo[1,5-a]pyrimidine-3-carboxamide], the Ki lay in the range of 10 to 1000 nM.

Turning to `Cc1cncnc1-c1ccncc1NC(=O)c1c(N)nn2cc(F)cnc12` [I-C-67, 2-amino-6-fluoro-N-(4-(5-methylpyrimidin-4-yl)pyridin-3-yl)pyrazolo[1,5-a]pyrimidine-3-carboxamide], the Ki is 10 to 1000 nM.

For the compound `Nc1nn2cc(F)cnc2c1C(=O)Nc1cncc(F)c1N1CCN2C(=O)CC[C@@H]2C1` [I-N-182, (R)-2-amino-6-fluoro-N-(5-fluoro-4-(6-oxohexahydropyrrolo[1,2-a]pyrazin-2(1H)-yl)pyridin-3-yl)pyrazolo[1,5-a]pyrimidine-3-carboxamide], the Ki lay in the range of 10 to 1000 nM.

As for `CC(C)(O)C1CCN(c2ccncc2NC(=O)c2c(N)nn3cc(Cl)cnc23)CC1` [I-N-69, 2-amino-6-chloro-N-(4-(4-(2-hydroxypropan-2-yl)piperidin-1-yl)pyridin-3-yl)pyrazolo[1,5-a]pyrimidine-3-carboxamide], the Ki was in the range of 10 to 1000 nM.
